What all share (type): in vivo
Assay [1] has as its system PIK3CA mutation-positive Colo201 cells derived from human colorectal cancer. Description: Anti-tumor test 1 on mice tumor-bearing human colorectal cancer-derived Colo201 cells. The note with it: Colo201, Balb/c nude mice, 8 mg/kg oral once a day for 14 days, final measuring day. The protocol: (§1) 5 to 6 week old male Balb/c nude mice (CHARLES RIVER LABORATORIES JAPAN, INC.) were injected and implanted, under the skin on the back, with 1.5×10^6 PIK3CA mutation-positive and BRAF mutation-positive RKO cells, or 3×10^6 PIK3CA mutation-positive Colo201 cells, both derived from human colorectal cancer suspended to a PBS solution or a mixed solution of PBS and Matrigel (registered trademark) in 1:1. Dividing into groups was performed when the tumor volume reached 100 to 300 mm^3, and administering of the test compounds was started. The test was performed on each of the 5 mice in a solvent group and a compound administered group. By oral administration, 6% cyclodextrin aqueous solution for the solvent group, and 6% cyclodextrin aqueous solution in which the test compound was mixed by 8 mg/kg for the compound administered group were administered. The administration was performed once a day for 10 days (RKO) or 14 days (Colo201), and the body weight and the tumor diameter were measured twice a week. For calculation of the tumor volume, the formula below was used.
(§2) [Tumor volume(mm^3)]=[major axis of tumor(mm)]×[minor axis of tumor(mm)]^2×0.5
(§3) The inhibition rate of tumor growth was calculated from the average value of the tumor volume according to the formula below. […]

Assay [2] has as its system DB cells derived from DLBCL. The experiment in a line: Anti-tumor test 2 on mice tumor-bearing DLBCL-derived DB cells. The following applies: Balb/c nude mice, 8 mg/kg oral once a day for 21 days, final measuring day. How it is done: (§4) 4 to 5 week old male Balb/c nude mice (CHARLES RIVER LABORATORIES JAPAN, INC.) were injected and implanted, under the skin on the back, with 3×10^6 DB cells or SU-DHL-4 cells both derived from DLBCL suspended to a mixed solution of PBS and Matrigel (registered trademark) in 1:1. Dividing into groups was performed when tumor volume reached 100 to 250 mm^3, and administering of the test compounds was started. The test was performed on each of the 5 mice in the solvent group and the compound administered group. By oral administration, 6% cyclodextrin aqueous solution for the solvent group, and 6% cyclodextrin aqueous solution in which the test compound was mixed by the dosage shown in Table 10 for the compound administered group were administered. The administration was performed once a day for 21 days by oral administration, and the body weight and the tumor diameter were measured twice a week. For calculation of the tumor volume, the formula below was used.
(§5) [Tumor volume(mm^3)]=[major axis of tumor(mm)]×[minor axis of tumor (mm)]^2×0.5
(§6) The inhibition rate of tumor growth and the rate of tumor regression were calculated from the average value of the tumor volume according to the formula below.
(§7) Inhibition rate of tumor growth(%)=(1−average of tumor volume growth in each group/average of tumor volume growth in solvent group)×100
(§8) Rate of tumor regression(%)=(1−average tumor volume in each group on measuring day/average tumor volume in each group when dividing groups)×100

Assay [3] relates to SU-DHL-4 cells derived from DLBCL. The experiment in a line: Anti-tumor test 2 on mice tumor-bearing DLBCL-derived SU-DHL-4 cells. The following applies: SU-DHL-4, Balb/c nude mice, 8 mg/kg oral once a day for 21 days, final measuring day. How it is done:
as §4, §5, §6, §7, §8

Assay [4] concerns PIK3CA mutation-positive and BRAF mutation-positive RKO cells derived from human colorectal cancer. Description: Anti-tumor test 2 on mice tumor-bearing human colorectal cancer-derived RKO cells. The following applies: Balb/c nude mice, 8 mg/kg oral once a day for 11 days, final measuring day. The protocol:
4 to 5 week old male Balb/c nude mice (CHARLES RIVER LABORATORIES JAPAN, INC.) were injected and implanted, under the skin on the back, with 3×10^6 PIK3CA mutation-positive and BRAF mutation-positive RKO cells, or 3×10^6 PIK3CA mutation-positive Colo201 cells, both derived from human colorectal cancer suspended to a mixed solution of PBS and Matrigel (registered trademark) in 1:1. Dividing into groups was performed when the tumor volume reached 100 to 250 mm^3, and administering of the test compounds was started. The test was performed on each of the 5 mice in the solvent group and the compound administered group. By oral administration, 6% cyclodextrin aqueous solution for the solvent group, and 6% cyclodextrin aqueous solution in which the test compound was mixed by the dosage shown in Table 4 for the compound administered group were administered. The administration was performed once a day for 11 days (RKO) or 21 days (Colo201), and the body weight and the tumor diameter were measured twice a week. For calculation of the tumor volume, the formula below was used.
as §2
The inhibition rate of tumor growth was calculated from the average value of the tumor volume according to the formula below.
Inhibition rate of tumor growth(%)=([…]average of tumor volume growth in each group/average of tumor volume growth in solvent group)×100

Assay [5] shares this test system. The experiment in a line: Anti-tumor test 1 on mice tumor-bearing human colorectal cancer-derived RKO cells. The note with it: Balb/c nude mice, 8 mg/kg oral once a day for 10 days, final measuring day. How it is done: as §1, §2, §3
In assay [6] the test system is WSU-DLCL-2 cells derived from DLBCL. Description: Anti-tumor test 1 on mice tumor-bearing DLBCL-derived WSU-DLCL-2 cells. The note with it: WSU-DLCL-2, Balb/c nude mice, 8 mg/kg oral once a day for 17 days, final measuring day. The protocol:
4 to 5 week old male Balb/c nude mice (CHARLES RIVER LABORATORIES JAPAN, INC.) were injected and implanted, under the skin on the back, with 3×10^6 DB cells or WSU-DLCL-2 cells both derived from DLBCL suspended to a mixed solution of PBS and Matrigel (registered trademark) in 1:1. Dividing into groups was performed when the average tumor volume reached 400 to 500 mm^3, and administering of the test compounds was started. […] The administration was performed once a day for 16 days (DB) or 17 days (WSU-DLCL-2) by oral administration, and the body weight and the tumor diameter were measured twice a week. For calculation of the tumor volume, the formula below was used.
as §5
The rate of tumor regression was calculated from the average value of the tumor volume according to the formula below.
as §8

These results are taken from patent publication US20170360781A1, “PHARMACEUTICAL COMPOSITION COMPRISING BICYCLIC NITROGEN-CONTAINING AROMATIC HETEROCYCLIC AMIDE COMPOUND AS ACTIVE INGREDIENT” (Astellas Pharma Inc., priority 2014, published 2017).

Take `COc1ccc(CN2CCC(c3ccc4[nH]c(C(=O)N5CCN(Cc6ccc(C(F)(F)F)cc6)CC5)nc4c3)CC2)cn1` [Compound A1, (5-{1-[(6-methoxypyridin-3-yl)methyl]piperidin-4-yl}-1H-benzimidazol-2-yl){4-[4-(trifluoromethyl)benzyl]piperazin-1-yl}methanone]: the entries for the “Inhibition rate of tumor growth” value in assay [1] and in assay [5] were 60% and 67%, respectively. In addition, the “Regression rate DB” value in assay [2] turned out to be 66% regression. In addition, the “Inhibition rate SU-DHL-4” value in assay [3] is 64%. Also, the “Inhibition rate RKO” value in assay [4] stood at 48%. Besides, in assay [6], the Regression rate came to 72%.
